Assay [1] addresses Amyloid-beta precursor protein (Homo sapiens) (UniProt P05067). The assay is described as follows: Neuroprotective activity against amyloid beta (1 to 42)-induced toxicity in human SH-SY5Y cells at 2.5 uM preincubated for 3 hrs by MTT assay. Format: functional, cell-based.
The target is the same in assay [2]. Briefly: Neuroprotective activity against amyloid beta (1 to 42)-induced toxicity in Alzheimer's disease patient platelet-SH-SY5Y cell cybrid at 2.5 uM preincubated for 3 hrs by MTT assay. Format: functional, cell-based. On the technique in general: Tetrazolium dyes change colour on reduction, which living cells bring about.
For assay [3] the target is unchanged. The assay is described as follows: Neuroprotective activity against amyloid beta (1 to 42)-induced toxicity in mild cognitive impairment patient platelet-SH-SY5Y cell cybrid at 2.5 uM preincubated for 3 hrs by MTT assay. It is filed as functional, cell-based.
The test system of assay [4] is Radical scavenging activity. Briefly: Antioxidant activity assessed as DPPH free radical scavenging activity at 1 mM after 30 mins by spectrophotometric analysis relative to control. Format: functional. On the technique in general: Loss of DPPH colour is used to gauge radical scavenging.
Assay [5] concerns Radical scavenging activity. Briefly: Antioxidant activity assessed as DPPH free radical scavenging activity at 1.22 mM after 30 mins by spectrophotometric analysis relative to control. Format: functional.
In a further assay the target is Acetylcholinesterase (Electrophorus electricus, UniProt O42275).
For assay [6], the system named is Radical scavenging activity.
Description: Antioxidant activity assessed as DPPH free radical scavenging activity after 30 mins by spectrophotometric analysis
Assay [7] concerns the target Amyloid-beta precursor protein (Homo sapiens) (UniProt P05067). The assay is described as follows: Neuroprotective activity against amyloid beta (1 to 42)-induced toxicity in normal cognition human platelet-SH-SY5Y cell cybrid at 2.5 uM preincubated for 3 hrs by MTT assay. It is filed as functional, cell-based.
Assay [8] relates to Radical scavenging activity. The assay is described as follows: Antioxidant activity assessed as DPPH free radical scavenging activity at 1.32 mM after 30 mins by spectrophotometric analysis relative to control. It is filed as functional.

For orientation: IC50 means the concentration at which inhibition is half-maximal. As usually defined, the EC50 is the concentration giving half of the maximal effect.

Active and inactive are the calls of the source. The calls are words filed in the database; no cut-off is given here.

Sequence of Amyloid-beta precursor protein (Homo sapiens) (P05067 whole entry): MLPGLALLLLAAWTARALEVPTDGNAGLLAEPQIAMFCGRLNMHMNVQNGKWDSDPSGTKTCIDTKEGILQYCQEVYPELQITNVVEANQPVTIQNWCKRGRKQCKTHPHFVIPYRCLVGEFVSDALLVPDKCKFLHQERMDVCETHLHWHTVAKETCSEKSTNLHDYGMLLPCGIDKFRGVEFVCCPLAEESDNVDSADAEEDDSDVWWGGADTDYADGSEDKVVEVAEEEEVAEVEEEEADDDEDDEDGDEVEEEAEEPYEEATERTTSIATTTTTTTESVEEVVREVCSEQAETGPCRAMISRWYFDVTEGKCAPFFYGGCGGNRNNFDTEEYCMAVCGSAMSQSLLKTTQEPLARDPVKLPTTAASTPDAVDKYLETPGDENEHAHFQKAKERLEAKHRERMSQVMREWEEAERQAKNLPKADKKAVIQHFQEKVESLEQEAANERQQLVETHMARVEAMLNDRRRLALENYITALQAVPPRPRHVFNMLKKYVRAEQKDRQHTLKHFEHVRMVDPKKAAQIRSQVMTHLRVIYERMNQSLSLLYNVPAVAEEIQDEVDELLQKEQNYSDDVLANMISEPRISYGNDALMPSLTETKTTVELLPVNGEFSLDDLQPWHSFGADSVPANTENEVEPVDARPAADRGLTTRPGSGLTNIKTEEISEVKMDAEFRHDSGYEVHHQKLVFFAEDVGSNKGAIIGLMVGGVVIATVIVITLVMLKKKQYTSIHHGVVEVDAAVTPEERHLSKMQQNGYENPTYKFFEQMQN
Sequence of Acetylcholinesterase (O42275 whole entry): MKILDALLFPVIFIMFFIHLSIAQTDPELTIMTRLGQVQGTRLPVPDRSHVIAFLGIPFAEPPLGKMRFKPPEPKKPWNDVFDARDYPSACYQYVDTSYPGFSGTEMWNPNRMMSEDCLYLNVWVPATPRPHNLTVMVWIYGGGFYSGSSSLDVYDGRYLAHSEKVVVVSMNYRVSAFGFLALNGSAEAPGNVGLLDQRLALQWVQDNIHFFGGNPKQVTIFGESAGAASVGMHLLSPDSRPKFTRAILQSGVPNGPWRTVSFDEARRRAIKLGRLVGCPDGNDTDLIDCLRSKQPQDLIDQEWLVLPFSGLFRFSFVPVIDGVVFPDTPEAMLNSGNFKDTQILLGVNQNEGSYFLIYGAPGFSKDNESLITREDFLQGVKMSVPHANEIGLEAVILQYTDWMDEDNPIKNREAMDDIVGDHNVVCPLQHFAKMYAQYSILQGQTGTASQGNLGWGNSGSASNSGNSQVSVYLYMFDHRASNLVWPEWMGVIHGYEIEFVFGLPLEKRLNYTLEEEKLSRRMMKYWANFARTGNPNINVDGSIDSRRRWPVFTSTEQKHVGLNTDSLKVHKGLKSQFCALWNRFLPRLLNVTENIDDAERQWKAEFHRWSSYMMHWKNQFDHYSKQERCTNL
Description for Acetylcholinesterase: Inhibition of electric eel AChE using acetylcholine iodide as substrate preincubated for 15 mins prior to substrate addition by Ellman's method

With `O=C(CCCCCNc1c2c(nc3ccccc13)CCCC2)NCCCc1nc2ccccc2s1`, the result in assay [1], in assay [2] and in [3] was Active. In addition, the Activity in [4] and in assay [5] was 25% each time. On Acetylcholinesterase, this compound gave an IC50 of 0.96 µM.
In the case of `O=C(CCCCCNc1c2c(nc3ccccc13)CCCC2)NCCCCCc1nc2ccccc2s1`, the result in [1], in [2] and in assay [3] was Active. Also, the Activity in assay [4] came to 25%. The IC50 against Acetylcholinesterase came to 0.76 µM. For the same compound, in assay [6], the EC50 is more than 1000 µM.
As to `O=C(CCCCCNc1c2c(nc3ccccc13)CCCC2)Nc1ccc(Cc2nc3ccccc3s2)cc1`, the Activity in assay [4] was 25%. The compound further displayed an IC50 at Acetylcholinesterase of 0.57 µM. For the same compound, the EC50 in [6] was more than 1000 µM.
On the same counts, the results for `O=C(CCCCCNc1c2c(nc3ccccc13)CCCC2)NCc1ccc(-c2nc3ccccc3s2)cc1` are 25%, 1.84 µM and more than 1000 µM.
`O=C(CCCCCNc1c2c(nc3ccccc13)CCCC2)Nc1ccc(-c2nc3ccccc3s2)cc1`: the result in assay [7] was Active. In addition, the Activity was determined as 25% in assay [4] and 32% in assay [8]. The compound also yielded an IC50 at Acetylcholinesterase of 0.34 µM.

(Values after ChEMBL document CHEMBL2406942, “Design, synthesis and neuroprotective evaluation of novel tacrine-benzothiazole hybrids as multi-targeted compounds against Alzheimer's disease” (Bioorg Med Chem, 2013).)
